Experimental findings from PubChem BioAssay (NCI) are described below.

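Assay format: 96-well plates, 48-hour exposure. Abbreviation: GI50, concentration required for 50% inhibition of growth. TGI marks complete inhibition of growth.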

Among the test systems are UACC-257 melanoma; COLO 205 colon; DU-145 prostate; KM12 colon; SNB-75 CNS; TK-10 renal; SF-295 CNS; M14 melanoma; CAKI-1 renal; BT-549 breast.
Test in all cases: NCI tumour cell line growth inhibition, 48 h

On to `CNC(=O)c1c(NC(=O)c2ccc(C(C)(C)C)cc2)sc2c1CCC(=O)C2`, for which the GI50 in the assay with UACC-257 melanoma was 0.824 µM; in the assay on COLO 205 colon, 0.2 µM; with DU-145 prostate it was 1.44 µM; with KM12 colon it was 0.313 µM; in the assay with SNB-75 CNS it was 0.343 µM; in the assay on TK-10 renal, 0.374 µM. In addition, the GI50 with SF-295 CNS was 0.334 µM; in the assay with M14 melanoma, 0.346 µM; in the assay on CAKI-1 renal it was 0.203 µM; in the assay with BT-549 breast, 0.352 µM. Besides, the TGI in the assay with UACC-257 melanoma came to 3.49 µM; in the assay on COLO 205 colon, 0.462 µM; with DU-145 prostate it was 3.68 µM; with KM12 colon, 1.34 µM; with SNB-75 CNS, 1.44 µM; in the assay on TK-10 renal, 1.97 µM. For the same compound, the TGI with SF-295 CNS is 1.35 µM; with M14 melanoma, 1.79 µM; in the assay on CAKI-1 renal, 0.945 µM; with BT-549 breast, 1.68 µM.
With `Cc1cc2c(cc1Cl)S/C(=C/C(=O)O)C(Nc1ccc3ncsc3c1)=NS2(=O)=O`, the GI50 with UACC-257 melanoma was more than 27.2 µM; in the assay with COLO 205 colon, more than 26.7 µM; in the assay on DU-145 prostate it was 21.2 µM; in the assay on KM12 colon it was 27.5 µM; in the assay on SNB-75 CNS, more than 100 µM; with TK-10 renal it was 17.9 µM. Further, the GI50 with SF-295 CNS is more than 31.6 µM; with M14 melanoma it was 12.7 µM; in the assay with CAKI-1 renal, 22.1 µM; in the assay with BT-549 breast, 7.12 µM. The TGI in the assay with UACC-257 melanoma was more than 46 µM; with COLO 205 colon, more than 33.9 µM; in the assay on DU-145 prostate, more than 97.3 µM; in the assay on KM12 colon it was more than 48 µM; in the assay on SNB-75 CNS, more than 100 µM; in the assay with TK-10 renal, 51.1 µM. Moreover, the TGI was more than 48.1 µM in the assay with SF-295 CNS, more than 38.1 µM in the assay on M14 melanoma, more than 48.9 µM in the assay on CAKI-1 renal and 29 µM with BT-549 breast.
In the case of `COc1ncc(Nc2ncc([C@@H](C)N3CCN(S(C)(=O)=O)CC3)cc2-c2nc(C)nc(N)n2)cc1F`, the GI50 with UACC-257 melanoma is 0.0561 µM; in the assay with COLO 205 colon it was 0.122 µM; in the assay with DU-145 prostate it was 0.183 µM; in the assay with KM12 colon, 1.33 µM; in the assay on SNB-75 CNS it was less than 0.01 µM; with TK-10 renal, 0.0222 µM. Also, the GI50 in the assay with SF-295 CNS was 0.0287 µM; in the assay on M14 melanoma, 2.16 µM; with CAKI-1 renal, 0.194 µM; in the assay with BT-549 breast, 0.0219 µM. Also, the TGI is more than 79.4 µM with UACC-257 melanoma; 15.3 µM in the assay on COLO 205 colon; more than 100 µM with DU-145 prostate; more than 100 µM with KM12 colon; 0.0585 µM in the assay on SNB-75 CNS; 1.22 µM with TK-10 renal. In addition, the TGI in the assay on SF-295 CNS was 1.85 µM; with M14 melanoma it was 38.8 µM; in the assay with CAKI-1 renal, more than 100 µM; in the assay with BT-549 breast it was 6.23 µM.
`Nc1nc([Se])c2ncn(C3OC(CO)C(O)C3O)c2n1` (stereo not given): the GI50 with UACC-257 melanoma is 37.5 µM; with COLO 205 colon, 19.3 µM; with DU-145 prostate it was 3.31 µM; in the assay on KM12 colon, 10.2 µM; in the assay on SNB-75 CNS it was more than 100 µM; in the assay on TK-10 renal it was 7.55 µM. Also, the GI50 was 3.95 µM with SF-295 CNS, 4.28 µM in the assay on M14 melanoma, 22.5 µM in the assay with CAKI-1 renal and 30.6 µM in the assay on BT-549 breast. Besides, the TGI in the assay with UACC-257 melanoma is more than 100 µM; with COLO 205 colon it was 72.5 µM; with DU-145 prostate, more than 100 µM; with KM12 colon it was 54.9 µM; with SNB-75 CNS, more than 100 µM; in the assay with TK-10 renal it was more than 100 µM. In addition, the TGI with SF-295 CNS, in the assay with M14 melanoma, in the assay with CAKI-1 renal and in the assay with BT-549 breast was more than 100 µM each time.
`CCN(CC)CCCNc1cc(OC)cc2nc3cc(Cl)ccc3nc12`: the GI50 is 1.83 µM in the assay with UACC-257 melanoma; 0.956 µM in the assay on COLO 205 colon; 2.53 µM in the assay on DU-145 prostate; 1.3 µM in the assay with KM12 colon; 1.7 µM in the assay with SNB-75 CNS; 1.85 µM in the assay on TK-10 renal. Moreover, the GI50 with SF-295 CNS is 2.33 µM; in the assay on M14 melanoma it was 1.61 µM; with CAKI-1 renal, 1.75 µM; in the assay on BT-549 breast, 4.95 µM. The TGI is 3.31 µM in the assay with UACC-257 melanoma; 2.26 µM in the assay on COLO 205 colon; 12.4 µM in the assay on DU-145 prostate; 3.43 µM in the assay on KM12 colon; 4.35 µM in the assay on SNB-75 CNS; 5.8 µM in the assay on TK-10 renal. Further, the TGI in the assay on SF-295 CNS came to 6.48 µM; with M14 melanoma, 3.02 µM; in the assay on CAKI-1 renal it was 5.03 µM; in the assay on BT-549 breast, 15.3 µM.
